Converted amounts (≈) assume the structure as drawn. The source made the active and inactive calls. The calls are words filed in the database; no cut-off is given here.
How the values were obtained:
Staphylococcus aureus = experiment: Antibacterial activity against Staphylococcus aureus isolate 38 measured after 18 to 24 hrs by broth microdilution method; format: functional; conditions: time 18-24 hrs
[1] = Inhibition of quorum sensing system in Pseudomonas aeruginosa PAO1 assessed as reduction in pyocyanin production at 64 uM measured after 48 hrs relative to control
Pseudomonas aeruginosa [2] = experiment: Antibacterial activity against Pseudomonas aeruginosa PAO1 measured after 18 to 24 hrs by broth microdilution method; format: functional; conditions: time 18-24 hrs
[3] = molecular target: T1, Transcriptional activator protein LasR (Pseudomonas aeruginosa (strain ATCC 15692 / PAO1 / 1C / PRS 101 / LMG12228)) (UniProt P25084); experiment: Inhibition of LasR quorum sensing system in Pseudomonas aeruginosa MH602 expressing PlasB::gfp assessed as reduction in GFP expression at 16 uM incubated for 15 hrs by fluorescence microplate reader analysis relative to control
T1 sequence (whole entry): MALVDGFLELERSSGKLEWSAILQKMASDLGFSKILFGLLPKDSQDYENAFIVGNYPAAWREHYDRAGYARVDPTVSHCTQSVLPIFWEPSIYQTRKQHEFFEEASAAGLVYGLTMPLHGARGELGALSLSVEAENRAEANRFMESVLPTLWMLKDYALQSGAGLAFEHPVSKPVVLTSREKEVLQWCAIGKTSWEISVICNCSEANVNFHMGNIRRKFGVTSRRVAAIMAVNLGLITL

Escherichia coli = experiment: Antibacterial activity against Escherichia coli K12 measured after 18 to 24 hrs by broth microdilution method; format: functional; conditions: time 18-24 hrs
Pseudomonas aeruginosa [4] = experiment: Growth inhibition of Pseudomonas aeruginosa MH602 expressing PlasB::gfp at 16 uM relative to control; format: functional; conditions: read-out: GI
[5] = Hemolytic activity in horse RBC measured after 4 hrs; format: toxicity, cell-based, Equus caballus, Erythrocyte; conditions: horse red blood cells
[6] = Hemolytic activity in horse RBC assessed as hemolysis at 500 uM measured after 4 hrs relative to control; format: toxicity, cell-based, Equus caballus, Erythrocyte; conditions: horse red blood cells, read-out: Activity

SMILES | MIC90 (Staphylococcus aureus) [µM] | inhibition [1] | MIC90 (Pseudomonas aeruginosa [2]) [µM] | inhibition [3] [%] | MIC90 (Escherichia coli) [µM] | inhibition of growth at 16 µM (Pseudomonas aeruginosa [4]) [%] | HC50 at 4 h [5] [µM] | hemolysis at 4 h, 500 µM [6] [%]
C=C1C(c2ccc(Br)cc2)=CC(=O)N1CC[Se]C(=N)N | 64 (≈ 25.5 µg/mL) | 70% | > 250 | 69.4 | 125 (≈ 49.9 µg/mL) | – | – | –
C=C1C(c2ccc(Cl)cc2)=CC(=O)N1CCSC(=N)N | 125 (≈ 38.5 µg/mL) | – | > 250 | 40.8 | > 250 | – | – | –
C=C1C(c2ccc(Cl)cc2)=CC(=O)N1CCCSC(=N)N | 64 (≈ 20.6 µg/mL) | 70% | 250 (≈ 80.5 µg/mL) | 53.1 | 64 (≈ 20.6 µg/mL) | – | – | –
C=C1C(c2ccc(Cl)cc2)=CC(=O)N1CC[Se]C(=N)N | 64 (≈ 22.7 µg/mL) | – | > 250 | 72.8 | 125 (≈ 44.3 µg/mL) | 15 | > 500 | –
C=C1C(c2ccc(F)cc2)=CC(=O)N1CCCSC(=N)N | 64 (≈ 19.5 µg/mL) | – | 250 (≈ 76.3 µg/mL) | 59.9 | 125 (≈ 38.2 µg/mL) | – | > 500 | –
C=C1C(c2ccc(F)cc2)=CC(=O)N1CCC[Se]C(=N)N | 250 (≈ 88.1 µg/mL) | – | > 250 | 41.9 | 250 (≈ 88.1 µg/mL) | – | – | –
C=C1C(c2ccc(F)cc2)=CC(=O)N1CCC[n+]1ccn(C)c1 | > 250 | inactive | > 250 | 14.6 | > 250 | – | – | –
C=C1C(c2ccc(Br)cc2)=CC(=O)N1CCSC(=N)N | 16 (≈ 5.64 µg/mL) | – | 125 (≈ 44 µg/mL) | 57.1 | 32 (≈ 11.3 µg/mL) | – | > 500 | 22
C=C1C(c2ccccc2)=CC(=O)N1CCC[Se]C(=N)N | 250 (≈ 83.6 µg/mL) | – | > 250 | 51.5 | > 250 | – | – | –
C=C1C(c2ccccc2)=CC(=O)N1CCC[n+]1ccn(C)c1 | > 250 | inactive | > 250 | 17.6 | > 250 | – | – | –
C=C1C(c2ccccc2)=CC(=O)N1CC[Se]C(=N)N | > 250 | – | > 250 | 30.5 | > 250 | – | – | –
C=C1C(c2ccccc2)=CC(=O)N1CC[n+]1ccn(C)c1 | 250 | inactive | > 250 | 14.4 | 250 | – | – | –
C=C1C(c2ccc(Cl)cc2)=CC(=O)N1CCC[Se]C(=N)N | 64 (≈ 23.6 µg/mL) | – | > 250 | 56.2 | 125 (≈ 46.1 µg/mL) | – | > 500 | –
C=C1C(c2ccc(Br)cc2)=CC(=O)N1CC[n+]1ccn(C)c1 | 64 | inactive | > 250 | 0 | 250 | – | – | –
C=C1C(c2ccc(Br)cc2)=CC(=O)N1CCCSC(=N)N | 64 (≈ 23.4 µg/mL) | – | 250 (≈ 91.6 µg/mL) | 48.3 | 64 (≈ 23.4 µg/mL) | < 20 | – | –
C=C1C(c2ccc(Cl)cc2)=CC(=O)N1CCC[n+]1ccn(C)c1 | 250 | inactive | > 250 | 17.3 | > 250 | – | – | –
C=C1C(c2ccccc2)=CC(=O)N1CCCSC(=N)N | 125 (≈ 35.9 µg/mL) | – | > 250 | 0 | > 250 | > 20 | – | –
C=C1C(c2ccc(Cl)cc2)=CC(=O)N1CC[n+]1ccn(C)c1 | 250 | inactive | > 250 | 23.4 | > 250 | – | – | –
C=C1C(c2ccc(F)cc2)=CC(=O)N1CCSC(=N)N | 250 (≈ 72.8 µg/mL) | 70% | > 250 | 73.4 | 250 (≈ 72.8 µg/mL) | 16 | – | –
C=C1C(c2ccc(Br)cc2)=CC(=O)N1CCC[Se]C(=N)N | 32 (≈ 13.2 µg/mL) | – | 250 (≈ 103 µg/mL) | 53.2 | 64 (≈ 26.4 µg/mL) | – | > 250 | –
C=C1C(c2ccc(Br)cc2)=CC(=O)N1CCC[n+]1ccn(C)c1 | 32 | inactive | > 250 | 0 | 125 | – | > 31 | –
O=C1C=C(Br)/C(=C/Br)O1 | – | – | – | 62.5 | – | – | – | –
C=C1C(c2ccc(F)cc2)=CC(=O)N1CC[n+]1ccn(C)c1 | > 250 | inactive | > 250 | 31.4 | > 250 | – | – | –
C=C1C(c2ccccc2)=CC(=O)N1CCSC(=N)N | > 250 | > 60% | > 250 | 9.5 | > 250 | > 20 | – | –
C=C1C(c2ccc(F)cc2)=CC(=O)N1CC[Se]C(=N)N | 64 (≈ 21.6 µg/mL) | – | > 250 | 64.5 | 250 (≈ 84.6 µg/mL) | – | – | –

Source: ChEMBL document CHEMBL6109110, “Novel cationic dihydropyrrol-2-one compounds as antimicrobial agents and quorum sensing inhibitors” (Bioorg Med Chem, 2025)
